ChEMBL document CHEMBL2429758, “3-aroylmethylene-2,3,6,7-tetrahydro-1H-pyrazino[2,1-a]isoquinolin-4(11bH)-ones as potent Nrf2/ARE inducers in human cancer cells and AOM-DSS treated mice” (J Med Chem, 2013)

Columns and labels:
Format in all cases: cell-based
[1] = molecular target: T1, Nuclear factor erythroid 2-related factor 2 (Homo sapiens) (UniProt Q16236); experiment: Induction of Nrf2-mediated ARE activity in human HepG2-ARE-C8 cells at 10 uM after 12 hrs by luciferase reporter gene assay relative to control
T1 sequence (whole entry): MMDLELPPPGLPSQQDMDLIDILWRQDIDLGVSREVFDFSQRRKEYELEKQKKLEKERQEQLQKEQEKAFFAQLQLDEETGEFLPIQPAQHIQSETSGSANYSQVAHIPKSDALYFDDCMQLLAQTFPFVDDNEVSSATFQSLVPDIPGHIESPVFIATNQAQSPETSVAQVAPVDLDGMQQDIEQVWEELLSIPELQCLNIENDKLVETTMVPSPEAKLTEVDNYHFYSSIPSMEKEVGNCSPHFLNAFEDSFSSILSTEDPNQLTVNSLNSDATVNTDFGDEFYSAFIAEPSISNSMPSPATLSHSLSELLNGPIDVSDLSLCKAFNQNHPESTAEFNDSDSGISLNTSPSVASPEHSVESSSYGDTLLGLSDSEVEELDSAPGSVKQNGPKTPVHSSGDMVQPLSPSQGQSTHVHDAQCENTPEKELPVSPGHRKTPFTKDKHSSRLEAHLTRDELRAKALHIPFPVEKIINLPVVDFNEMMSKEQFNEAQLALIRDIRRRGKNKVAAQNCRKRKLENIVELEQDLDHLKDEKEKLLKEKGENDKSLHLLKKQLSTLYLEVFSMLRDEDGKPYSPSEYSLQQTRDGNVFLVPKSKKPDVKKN

[2] = molecular target: T1, Nuclear factor erythroid 2-related factor 2 (Homo sapiens); experiment: Induction of Nrf2-mediated ARE activity in human HepG2-ARE-C8 cells at 5 uM after 12 hrs by luciferase reporter gene assay relative to control
[3] = molecular target: T1, Nuclear factor erythroid 2-related factor 2 (Homo sapiens); experiment: Induction of Nrf2-mediated ARE activity in human HepG2-ARE-C8 cells at 1 uM after 12 hrs by luciferase reporter gene assay relative to control
[4] = molecular target: T1, Nuclear factor erythroid 2-related factor 2 (Homo sapiens); experiment: Induction of Nrf2-mediated ARE activity in human HepG2-ARE-C8 cells at 0.1 uM after 12 hrs by luciferase reporter gene assay relative to control
[5] = molecular target: T1, Nuclear factor erythroid 2-related factor 2 (Homo sapiens); experiment: Induction of Nrf2-mediated ARE activity in human HepG2-ARE-C8 cells at 0.01 uM after 12 hrs by luciferase reporter gene assay relative to control

Compound | fold change (FC) [1] | fold change (FC) [2] | fold change (FC) [3] | fold change (FC) [4] | fold change (FC) [5]
Cc1ccc(C(=O)/C=C2\NCC3c4ccccc4CCN3C2=O)cc1 (stereo not given) | 5.22 | 4.42 | 3.25 | 3.3 | 2.01
COc1ccc2c(c1)C1CN/C(=C\C(=O)c3cccc(Cl)c3)C(=O)N1CC2 (stereo not given) | 7.28 | 6.49 | 4.53 | 2.28 | 2.26
O=C(/C=C1\NCC2c3ccccc3CCN2C1=O)c1ccc(Cl)cc1Cl (stereo not given) | 2.49 | 1.78 | 1.42 | 1.1 | 1.68
COc1ccc2c(c1)C1CN/C(=C\C(=O)c3cccc([N+](=O)[O-])c3)C(=O)N1CC2 (stereo not given) | 6.5 | 5.76 | 3.08 | 1.75 | 1.45
COc1ccc2c(c1)C1CN/C(=C\C(=O)c3cccc(F)c3)C(=O)N1CC2 (stereo not given) | 20.4 | 16.9 | 7.23 | 3.93 | 1.31
O=C(/C=C1\NCC2c3ccccc3CCN2C1=O)c1ccc(-c2ccccc2)cc1 (stereo not given) | 2.09 | 1.69 | 1.41 | 1.67 | 1.62
COc1ccc(C(=O)/C=C2\NCC3c4ccccc4CCN3C2=O)cc1 (stereo not given) | 5.07 | 3.3 | 2.74 | 2.3 | 1.15
COc1ccc2c(c1)CCN1C(=O)/C(=C/C(=O)c3ccccc3)NCC21 (stereo not given) | 5.36 | 8.18 | 3.8 | 1.7 | 0.65
O=C(/C=C1\NCC2c3ccccc3CCN2C1=O)c1ccc(F)cc1 (stereo not given) | 14 | 12.3 | 8 | 4.39 | 2.58
COc1cccc(C(=O)/C=C2\NCC3c4cc(OC)ccc4CCN3C2=O)c1 (stereo not given) | 1.59 | 1.36 | 1.24 | 1.21 | 1.08
O=C(/C=C1\NCC2c3ccccc3CCN2C1=O)c1cccc([N+](=O)[O-])c1 (stereo not given) | 18.5 | 14.5 | 7.22 | 3.52 | 3.28
O=C(/C=C1\NCC2c3ccccc3CCN2C1=O)c1ccc(Cl)cc1 (stereo not given) | 4 | 3.57 | 2.61 | 2.33 | 1.3
O=C(/C=C1\NCC2c3ccccc3CCN2C1=O)c1cccc(Cl)c1 (stereo not given) | 16.5 | 14 | 10.7 | 3.77 | 1.94
O=C(/C=C1\NCC2c3ccccc3CCN2C1=O)c1ccc([N+](=O)[O-])cc1 (stereo not given) | 3.81 | 2.43 | 1.76 | 2.34 | 1.2
COc1ccc2c(c1)C1CN/C(=C\C(=O)c3ccccc3)C(=O)N1CC2 (stereo not given) | 13 | 10.4 | 3.5 | 1.93 | 1.35
O=C(/C=C1\NCC2c3ccccc3CCN2C1=O)c1ccccc1[N+](=O)[O-] (stereo not given) | 2.8 | 2.41 | 1.3 | 1.29 | 1.28
O=C(/C=C1\NCC2c3ccccc3CCN2C1=O)c1ccccc1Cl (stereo not given) | 6.04 | 5.46 | 2.77 | 2.19 | 1.19
O=C(/C=C1\NCC2c3ccccc3CCN2C1=O)c1ccc(F)c(F)c1 (stereo not given) | 6.38 | 5.47 | 3.23 | 2.25 | 2.12
O=C(/C=C1\NCC2c3ccccc3CCN2C1=O)c1cc(F)cc(F)c1 (stereo not given) | 7.62 | 5.22 | 4.75 | 2.92 | 1.34
COc1cccc(C(=O)/C=C2\NCC3c4ccccc4CCN3C2=O)c1 (stereo not given) | 10 | 8.65 | 5.68 | 3.69 | 1.48
COc1ccc2c(c1)CCN1C(=O)/C(=C/C(=O)c3cccc(F)c3)NCC21 (stereo not given) | 6.66 | 5.65 | 3.96 | 5.19 | 1.83

Next, values leading:

fold change (FC) [1] | fold change (FC) [2] | fold change (FC) [3] | fold change (FC) [4] | fold change (FC) [5] | Compound
7.7 | 5.18 | 3.73 | 1.45 | 2.58 | COc1ccc2c(c1)CCN1C(=O)/C(=C/C(=O)c3ccccc3F)NCC21 (stereo not given)
1.25 | 1.82 | 2.7 | 1.42 | 1.25 | COc1cc2c(cc1OC)C1CN/C(=C\C(=O)c3ccc(F)cc3)C(=O)N1CC2 (stereo not given)
4.26 | 5.89 | 2.98 | 2.83 | 1.93 | COc1cccc2c1CCN1C(=O)/C(=C/C(=O)c3ccccc3F)NCC21 (stereo not given)
16.9 | 16.5 | 8.85 | 3.64 | 2.5 | O=C(/C=C1\NCC2c3ccccc3CCN2C1=O)c1ccccc1F (stereo not given)
1.06 | 1.11 | 0.95 | 1.18 | 1.45 | COc1cccc(C(=O)/C=C2\NCC3c4cc(OC)c(OC)cc4CCN3C2=O)c1 (stereo not given)
1.99 | 1.78 | 1.51 | 1.68 | 0.96 | COc1ccccc1C(=O)/C=C1\NCC2c3ccccc3CCN2C1=O (stereo not given)
1.44 | 1.15 | 1.07 | 1.47 | 1.41 | COc1cc2c(cc1OC)C1CN/C(=C\C(=O)c3cccc(Cl)c3)C(=O)N1CC2 (stereo not given)
1.1 | 0.97 | 0.95 | 0.8 | 1.07 | COc1cc2c(cc1OC)C1CN/C(=C\C(=O)c3ccccc3F)C(=O)N1CC2 (stereo not given)
12.4 | 9.84 | 3.44 | 2.75 | 1.44 | COc1ccc2c(c1)C1CN/C(=C\C(=O)c3ccccc3F)C(=O)N1CC2 (stereo not given)
2.15 | 2.11 | 1.93 | 1.77 | 1.52 | COc1ccc(C(=O)/C=C2\NCC3c4ccccc4CCN3C2=O)cc1OC (stereo not given)
2.51 | 1.44 | 1.03 | 1.08 | 1.31 | COc1cc2c(cc1OC)C1CN/C(=C\C(=O)c3cccc([N+](=O)[O-])c3)C(=O)N1CC2 (stereo not given)
1.09 | 1.68 | 1.05 | 0.93 | 2.31 | COc1cc2c(cc1OC)C1CN/C(=C\C(=O)c3cccc(F)c3)C(=O)N1CC2 (stereo not given)
